# Experimental data reported in ChEMBL document CHEMBL4354815, “Fibrinolysis Inhibitors: Potential Drugs for the Treatment and Prevention of Bleeding” (J Med Chem, 2020).
# T1: Coagulation factor XII (Homo sapiens, UniProt P00748)
# T1 sequence (P00748 whole entry): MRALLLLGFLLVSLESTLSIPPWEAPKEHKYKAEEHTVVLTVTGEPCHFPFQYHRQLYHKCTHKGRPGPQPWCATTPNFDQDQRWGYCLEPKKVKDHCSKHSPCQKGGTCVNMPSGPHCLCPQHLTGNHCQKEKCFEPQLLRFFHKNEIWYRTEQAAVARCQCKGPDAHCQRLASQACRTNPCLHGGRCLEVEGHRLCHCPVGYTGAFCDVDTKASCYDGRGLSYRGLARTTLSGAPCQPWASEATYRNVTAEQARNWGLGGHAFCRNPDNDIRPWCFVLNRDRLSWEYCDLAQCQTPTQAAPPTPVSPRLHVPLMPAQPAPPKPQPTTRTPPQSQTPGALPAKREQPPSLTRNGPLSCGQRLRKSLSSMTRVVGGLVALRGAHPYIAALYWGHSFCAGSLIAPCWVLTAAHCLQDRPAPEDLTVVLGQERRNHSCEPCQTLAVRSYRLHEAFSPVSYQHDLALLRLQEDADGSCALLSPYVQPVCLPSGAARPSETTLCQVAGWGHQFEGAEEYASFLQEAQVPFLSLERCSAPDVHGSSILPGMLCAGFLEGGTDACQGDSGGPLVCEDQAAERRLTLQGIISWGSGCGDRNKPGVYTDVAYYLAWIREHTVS
# T2: Complement C1s subcomponent (Homo sapiens, UniProt P09871)
# T2 sequence (P09871 whole entry): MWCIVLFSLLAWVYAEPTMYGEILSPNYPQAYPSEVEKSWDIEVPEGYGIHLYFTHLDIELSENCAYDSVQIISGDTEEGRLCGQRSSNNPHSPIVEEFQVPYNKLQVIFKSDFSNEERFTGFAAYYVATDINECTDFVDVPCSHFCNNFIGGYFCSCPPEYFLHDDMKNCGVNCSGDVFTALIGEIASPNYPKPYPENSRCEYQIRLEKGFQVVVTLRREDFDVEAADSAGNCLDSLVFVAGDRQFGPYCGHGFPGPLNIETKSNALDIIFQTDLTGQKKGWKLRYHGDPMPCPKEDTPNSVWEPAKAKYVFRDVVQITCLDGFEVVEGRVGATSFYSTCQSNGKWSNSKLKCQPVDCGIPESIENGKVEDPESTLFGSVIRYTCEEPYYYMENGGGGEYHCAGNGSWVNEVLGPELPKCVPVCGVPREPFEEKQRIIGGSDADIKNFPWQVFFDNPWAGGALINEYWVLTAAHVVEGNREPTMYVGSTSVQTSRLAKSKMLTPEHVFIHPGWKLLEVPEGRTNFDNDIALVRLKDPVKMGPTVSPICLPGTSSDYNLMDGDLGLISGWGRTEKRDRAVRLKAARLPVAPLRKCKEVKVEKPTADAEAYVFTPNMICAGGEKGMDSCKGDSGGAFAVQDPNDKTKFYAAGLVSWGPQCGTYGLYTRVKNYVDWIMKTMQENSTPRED
# T3: Complement C1r subcomponent (Homo sapiens, UniProt P00736)
# T3 sequence (P00736 whole entry): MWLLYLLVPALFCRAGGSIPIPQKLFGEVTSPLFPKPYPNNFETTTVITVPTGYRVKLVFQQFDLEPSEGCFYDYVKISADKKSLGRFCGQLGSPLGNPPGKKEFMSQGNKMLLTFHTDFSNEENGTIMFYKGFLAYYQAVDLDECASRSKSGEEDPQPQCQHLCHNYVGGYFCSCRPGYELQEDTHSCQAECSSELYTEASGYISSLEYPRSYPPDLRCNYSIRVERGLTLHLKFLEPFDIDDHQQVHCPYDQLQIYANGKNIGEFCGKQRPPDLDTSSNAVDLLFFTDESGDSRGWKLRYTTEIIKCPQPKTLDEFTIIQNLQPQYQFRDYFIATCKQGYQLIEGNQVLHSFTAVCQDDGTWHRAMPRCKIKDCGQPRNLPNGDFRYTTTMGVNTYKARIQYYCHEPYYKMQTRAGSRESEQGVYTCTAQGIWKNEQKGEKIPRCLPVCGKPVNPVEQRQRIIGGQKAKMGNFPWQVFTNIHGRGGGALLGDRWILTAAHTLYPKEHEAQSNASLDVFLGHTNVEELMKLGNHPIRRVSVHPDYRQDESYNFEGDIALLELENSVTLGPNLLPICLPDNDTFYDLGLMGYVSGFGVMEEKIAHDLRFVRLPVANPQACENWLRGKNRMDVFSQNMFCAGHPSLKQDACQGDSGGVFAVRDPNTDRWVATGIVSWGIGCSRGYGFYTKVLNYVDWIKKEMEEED
# What was measured:
# [1] = target: Coagulation factor XI (Homo sapiens, UniProt P03951); experiment: Inhibition of human factor 11a preincubated for 15 mins followed by Boc-Glu (OBzl) -Ala-Arg-AMC and measured after 30 mins by fluorescence method
# Chain of Coagulation factor XI (P03951 19-387 limits assumed): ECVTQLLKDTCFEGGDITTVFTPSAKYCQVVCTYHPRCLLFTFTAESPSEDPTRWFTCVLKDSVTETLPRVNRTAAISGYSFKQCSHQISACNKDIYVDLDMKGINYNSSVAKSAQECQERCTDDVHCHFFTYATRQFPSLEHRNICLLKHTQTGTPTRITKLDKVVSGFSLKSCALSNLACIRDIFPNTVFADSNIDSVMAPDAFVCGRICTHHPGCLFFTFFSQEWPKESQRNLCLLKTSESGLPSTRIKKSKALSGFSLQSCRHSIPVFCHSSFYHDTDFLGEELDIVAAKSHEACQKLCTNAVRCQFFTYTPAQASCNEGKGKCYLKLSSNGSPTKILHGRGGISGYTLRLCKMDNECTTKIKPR
# Chain of Coagulation factor XI (P03951 388-625 limits assumed): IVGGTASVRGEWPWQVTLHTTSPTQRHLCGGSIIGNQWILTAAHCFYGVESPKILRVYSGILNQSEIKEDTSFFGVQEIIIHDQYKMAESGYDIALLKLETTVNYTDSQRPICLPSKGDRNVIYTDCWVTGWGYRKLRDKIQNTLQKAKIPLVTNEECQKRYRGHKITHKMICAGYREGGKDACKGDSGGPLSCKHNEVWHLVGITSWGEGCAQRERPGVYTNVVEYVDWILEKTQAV
# [2] = target: T4, Plasma kallikrein (Homo sapiens, UniProt P03952); experiment: Inhibition of human plasma kallikrein preincubated for 15 mins followed by H-Pro-Phe-Arg-AMC substrate addition and measured after 30 mins by fluorescence method
# T4 sequence (P03952 20-390 limits assumed): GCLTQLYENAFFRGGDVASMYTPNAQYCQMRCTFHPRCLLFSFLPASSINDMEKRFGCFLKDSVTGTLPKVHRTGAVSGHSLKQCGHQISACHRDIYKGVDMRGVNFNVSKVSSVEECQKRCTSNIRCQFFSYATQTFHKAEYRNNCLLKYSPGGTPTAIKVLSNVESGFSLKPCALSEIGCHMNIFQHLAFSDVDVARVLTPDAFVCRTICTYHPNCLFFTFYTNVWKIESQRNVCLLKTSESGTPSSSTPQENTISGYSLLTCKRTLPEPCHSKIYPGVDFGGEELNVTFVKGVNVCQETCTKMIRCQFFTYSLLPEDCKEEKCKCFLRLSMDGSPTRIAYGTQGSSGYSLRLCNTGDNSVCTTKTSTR
# T4 sequence (P03952 391-638 limits assumed): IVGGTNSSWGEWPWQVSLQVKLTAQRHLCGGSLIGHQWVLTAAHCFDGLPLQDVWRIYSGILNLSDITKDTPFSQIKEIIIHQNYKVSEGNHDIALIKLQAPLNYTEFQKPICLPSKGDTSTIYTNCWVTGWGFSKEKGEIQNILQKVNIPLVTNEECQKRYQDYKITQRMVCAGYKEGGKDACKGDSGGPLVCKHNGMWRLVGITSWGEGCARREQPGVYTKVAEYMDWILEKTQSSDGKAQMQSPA
# [3] = target: T5, Plasminogen (Homo sapiens, UniProt P00747); experiment: Inhibition of human plasmin preincubated for 15 mins followed by MeOSuc-Ala-Phe-Lys-AMC substrate addition and measured after 30 mins by fluorescence method
# [4] = target: T5, Plasminogen; experiment: Inhibition of human plasmin using tosyl-Gly-Pro-Lys-pNA as substrate after 10 mins by UV/Vis photometry
# [5] = target: T4, Plasma kallikrein; experiment: Inhibition of human plasma kallikrein using S2302 as substrate after 10 mins by UV/Vis photometry
# [6] = system: Plasma; experiment: Anti-fibrinolytic activity in 5% human plasma in presence of fibrinogen by spectrophotometric method; format: functional, cell-free
# [7] = target: T5, Plasminogen; experiment: Inhibition of plasmin (unknown origin) assessed as reduction in amidolytic activity using S-2251 as the substrate after 4 mins
# [8] = target: T5, Plasminogen; experiment: Inhibition of microplasmin (unknown origin) expressed in Pichia pastoris preincubated for 10 mins followed by S2251 substrate addition
# [9] = target: Urokinase-type plasminogen activator (Homo sapiens, UniProt P00749); experiment: Inhibition of urokinase-type plasminogen activator (unknown origin)
# [10] = target: T5, Plasminogen; experiment: Inhibition of plasmin (unknown origin)
# [11] = target: Coagulation factor X (Homo sapiens, UniProt P00742); experiment: Inhibition of human factor 10a using MeOCO-d-Cha-Gly-Arg-pNA as substrate
# Chain of Coagulation factor X (P00742 41-179 limits assumed): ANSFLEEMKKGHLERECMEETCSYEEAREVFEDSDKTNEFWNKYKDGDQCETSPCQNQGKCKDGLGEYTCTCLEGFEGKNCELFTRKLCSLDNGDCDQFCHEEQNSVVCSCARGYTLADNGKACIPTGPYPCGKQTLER
# Chain of Coagulation factor X (P00742 235-488 limits assumed): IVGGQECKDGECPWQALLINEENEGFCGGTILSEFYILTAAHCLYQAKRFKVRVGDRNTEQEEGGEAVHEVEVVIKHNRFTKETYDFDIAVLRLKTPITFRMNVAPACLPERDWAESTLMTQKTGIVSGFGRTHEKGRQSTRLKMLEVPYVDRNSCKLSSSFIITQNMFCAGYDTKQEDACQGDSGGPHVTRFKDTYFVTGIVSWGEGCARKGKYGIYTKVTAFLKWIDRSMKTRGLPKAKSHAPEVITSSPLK
# [12] = target: Vitamin K-dependent protein C (Homo sapiens, UniProt P04070); experiment: Inhibition of human activated protein […] C using H-D-Lys(Cbo)-Pro-Arg-pNA as substrate
# Chain of Vitamin K-dependent protein C (P04070 43-197 limits assumed): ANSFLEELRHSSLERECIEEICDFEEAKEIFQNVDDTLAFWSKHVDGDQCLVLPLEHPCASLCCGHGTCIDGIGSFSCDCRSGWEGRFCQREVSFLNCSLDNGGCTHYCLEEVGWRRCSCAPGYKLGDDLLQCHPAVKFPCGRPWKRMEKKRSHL
# Chain of Vitamin K-dependent protein C (P04070 212-461 limits assumed): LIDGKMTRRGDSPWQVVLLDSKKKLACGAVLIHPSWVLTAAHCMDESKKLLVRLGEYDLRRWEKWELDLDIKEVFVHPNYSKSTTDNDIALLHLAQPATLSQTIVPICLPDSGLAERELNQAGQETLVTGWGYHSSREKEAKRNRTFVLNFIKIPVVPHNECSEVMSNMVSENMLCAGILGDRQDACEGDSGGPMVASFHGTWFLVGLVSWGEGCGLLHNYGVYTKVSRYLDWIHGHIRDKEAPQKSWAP
# [13] = Inhibition of human urinary kallikrein using H-D-Val-Leu-Arg-pNA as substrate
# [14] = target: Tissue-type plasminogen activator (Homo sapiens, UniProt P00750); experiment: Inhibition of human tissue-type plasminogen activator using Mes-d-Cha- Gly-Arg-pNA as substrate
# Chain of Tissue-type plasminogen activator (P00750 whole entry): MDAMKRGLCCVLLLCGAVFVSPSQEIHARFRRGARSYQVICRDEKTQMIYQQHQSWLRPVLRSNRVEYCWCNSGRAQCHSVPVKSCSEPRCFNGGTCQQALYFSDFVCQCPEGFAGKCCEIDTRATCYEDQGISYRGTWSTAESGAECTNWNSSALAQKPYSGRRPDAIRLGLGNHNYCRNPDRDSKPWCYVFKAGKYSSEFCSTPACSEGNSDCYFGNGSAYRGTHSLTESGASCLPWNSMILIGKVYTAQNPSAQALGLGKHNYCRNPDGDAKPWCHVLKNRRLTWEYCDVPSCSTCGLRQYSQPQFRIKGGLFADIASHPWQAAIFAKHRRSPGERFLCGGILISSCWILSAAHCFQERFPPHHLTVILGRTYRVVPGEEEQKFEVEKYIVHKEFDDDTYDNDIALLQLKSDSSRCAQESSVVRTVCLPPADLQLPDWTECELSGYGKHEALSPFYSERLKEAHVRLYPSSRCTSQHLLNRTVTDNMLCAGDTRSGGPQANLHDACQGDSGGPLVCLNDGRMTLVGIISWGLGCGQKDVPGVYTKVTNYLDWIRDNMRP
# [15] = target: T1, Coagulation factor XII; experiment: Inhibition of human factor 12a using CHA-Gly-Arg- pNA as substrate
# [16] = target: T2, Complement C1s subcomponent; experiment: Inhibition of human Complement C1s subcomponent using Val-Ser-Arg-pNA as substrate
# [17] = target: Prothrombin (Homo sapiens, UniProt P00734); experiment: Inhibition of human factor 2a using Mes-d-Cha-Gly-Arg-pNA as substrate
# [18] = target: T3, Complement C1r subcomponent; experiment: Inhibition of human Complement C1r subcomponent using Val-Ser-Arg-pNA as substrate
# [19] = compound: NCCCC[C@H](NC(=O)[C@H](Cc1ccccc1)NC(=O)[C@@H]1CCC(=O)N1)C(=O)Nc1ccc([N+](=O)[O-])cc1; experiment: (§1) Inhibition of human plasmin assessed as km by Lineweaver-burk method
# [20] = compound: CC[C@@H](C)[C@@H](N)C(=O)N[C@@H](Cc1ccccc1)C(=O)N[C@@H](CCCCN)C(=O)Nc1ccc([N+](=O)[O-])cc1; experiment: as §1
molecule,measurement,setting,value
Cc1nc2nc(C(C)C)[nH]c2cc1-c1ccc(C[C@H](NC(=O)[C@H]2CC[C@H](CN)CC2)C(=O)Nc2ccc(-c3nnc(C(F)(F)C(F)(F)C(=O)O)[nH]3)cc2)cc1,IC50,[1],< 0.13 nM
same,IC50,[2],1.7 nM
same,IC50,[3],0.42 nM
N=C(N)c1ccc(CNC(=O)[C@H](Cc2cccc(CN)c2)NC(=O)[C@@H](Cc2ccc3ccccc3c2)NS(=O)(=O)Cc2ccccc2)cc1,Ki,[4],1.1 nM
same,Ki,[5],0.1 nM
O=c1cc(C2CCNCC2)n2nc3ccc(F)c(-c4ccccc4)c3c2[nH]1,IC50,[6],11 nM
NC[C@H]1CC[C@H](C(=O)N[C@@H](CCCCNC(=O)OCc2ccccc2)C(=O)COc2ccc(C(=O)c3ccccc3)cc2)CC1,IC50,[7],200000 nM
CCCCCCCCNC(=O)[C@H](Cc1ccc(OCc2ccncc2)cc1)NC(=O)[C@H]1CC[C@H](CN)CC1,IC50,[8],240 nM
N=C(N)c1ccc(CNC(=O)[C@H](CCc2ccccc2)NC(=O)[C@@H](CO)NS(=O)(=O)Cc2ccccc2)cc1,Ki,[9],28 nM
same,Ki,[10],36 nM
N=C(N)c1ccc(CNC(=O)[C@H](CCC2CCNCC2)NC(=O)[C@@H](CCC2CCN(C(=O)C3CC3)CC2)NS(=O)(=O)Cc2ccccc2)cc1,Ki,[11],> 1000 nM
same,Ki,[12],> 1000 nM
same,Ki,[13],> 1000 nM
same,Ki,[14],> 1000 nM
same,Ki,[15],> 1000 nM
same,Ki,[16],> 1000 nM
same,Ki,[17],> 1000 nM
same,Ki,[18],> 1000 nM
CCC(C)C(=O)c1cnn2c(C3CCNCC3)cc(=O)[nH]c12 (configuration not stated),IC50,[6],8 nM
NCCCC[C@H](NC(=O)[C@H]1CC[C@H](CN)CC1)C(=O)NCOc1ccc(C(=O)c2ccccc2)cc1,IC50,[7],660000 nM
Cc1cc2c(=O)c(C(=O)O)c[nH]c2cc1-c1ccc(C[C@H](NC(=O)[C@H]2CC[C@H](CN)CC2)C(=O)Nc2cc(Cl)c3[nH]c(=O)[nH]c3c2)cc1,IC50,[1],6.5 nM
same,IC50,[2],0.7 nM
same,IC50,[3],2.1 nM
NCCCCCC(=O)N[C@@H](CCCCN)C(=O)Nc1ccc(C(=O)c2ccccc2)cc1,IC50,[7],12000 nM
C#Cc1cccc2nn3c(C4CCNCC4)cc(=O)[nH]c3c12,IC50,[6],10 nM
"Plasminogen (Homo sapiens), P00747 (protein) MEHKEVVLLLLLFLKSGQGEPLDDYVNTQGASLFSVTKKQLGAGSIEECAAKCEEDEEFTCRAFQYHSKEQQCVIMAENRKSSIIIRMRDVVLFEKKVYLSECKTGNGKNYRGTMSKTKNGITCQKWSSTSPHRPRFSPATHPSEGLEENYCRNPDNDPQGPWCYTTDPEKRYDYCDILECEEECMHCSGENYDGKISKTMSGLECQAWDSQSPHAHGYIPSKFPNKNLKKNYCRNPDRELRPWCFTTDPNKRWELCDIPRCTTPPPSSGPTYQCLKGTGENYRGNVAVTVSGHTCQHWSAQTPHTHNRTPENFPCKNLDENYCRNPDGKRAPWCHTTNSQVRWEYCKIPSCDSSPVSTEQLAPTAPPELTPVVQDCYHGDGQSYRGTSSTTTTGKKCQSWSSMTPHRHQKTPENYPNAGLTMNYCRNPDADKGPWCFTTDPSVRWEYCNLKKCSGTEASVVAPPPVVLLPDVETPSEEDCMFGNGKGYRGKRATTVTGTPCQDWAAQEPHRHSIFTPETNPRAGLEKNYCRNPDGDVGGPWCYTTNPRKLYDYCDVPQCAAPSFDCGKPQVEPKKCPGRVVGGCVAHPHSWPWQVSLRTRFGMHFCGGTLISPEWVLTAAHCLEKSPRPSSYKVILGAHQEVNLEPHVQEIEVSRLFLEPTRKDIALLKLSSPAVITDKVIPACLPSPNYVVADRTECFITGWGETQGTFGAGLLKEAQLPVIENKVCNRYEFLNGRVQSTELCAGHLAGGTDSCQGDSGGPLVCFEKDKYILQGVTSWGLGCARPNKPGVYVRVSRFVTWIEGVMRNN",Km,[19],300 µM
same,Km,[20],20 µM
